Where “and” joins values, the source holds several entries; their conditions need not be identical. Equal entries are not always repeated.
Assays:
Assay type in all cases: cell-based
HeLa cells = assay: Cytotoxicity, LDH leakage assay
Description: HeLa cells were cultured in 96-well plates at 37° C. and 5% CO2 in Roswell Park Memorial Institute (RMPI) 1640 medium with 5% Fetal Bovine Serum (FBS). Once HeLa cells reached 95% confluency, the media was replaced with media containing various concentrations of EIPE-1, DBI or DMSO for 24 hours. Cell cytotoxicity was measured using the lactate dehydrogenase (LDH) leakage assay. Results were compared to maximum values of lysed cells in control wells and were graphed as percent relative cytotoxicity using Prism 5.0.
Host cell cytotoxicity against HeLa cells was examined for both DBI and EIPE-1 (FIG. 2B). LDH release was examined after 24-hour exposure to varying concentrations of DBI, DMSO and EIPE-1. […] Thus, EIPE-1 is relatively safe to use with respect to eukaryotic cells.

[1] = tested on: Escherichia coli (E. coli); assay: Antimicrobial activity against E. coli
Description: The methicillin resistant Staphylococcus aureus (MRSA) and Pseudomonas aeruginosa (PA) strains used in this study are clinical isolates obtained from an adult CF patient at the Cystic Fibrosis Clinic at the OU Children's Hospital (Oklahoma City, Okla.). Escherichia coli (E. coli) and Enterococcus faecalis (E. faecalis) were obtained from American Type Culture Collection (ATCC). The strains were grown overnight with shaking at 37° C. (220 RPM) in 15 mL of Luria-Bertani (LB) broth. The overnight culture was sub-cultured the next day before use for the MIC experiments. All sub-cultures consisted of 1 mL of the overnight culture, mixed with 10 mL of Mueller Hinton broth. The working stock of the EIPE-1 and DBI was prepared by dissolving 1 mg of each in 1 mL of DMSO.
The minimum inhibitory concentrations (MICs) were determined by the broth microdilution method, following the guidelines of the Clinical and Laboratory Standards Institute (CLSI). Two-fold serial dilutions of EIPE-1, DBI, and Arm (starting with 1 mg/mL) were prepared in a 100 μL volume in 96-well microtiter plates. The dilution series included DMSO as a negative control. […] Plates were incubated with shaking at 220 RPM at 37° C., and the MIC was determined based on the lowest concentration at which no visible growth of the bacterial isolate was observed.

[2] = tested on: Bacillus subtilis ATCC 6633; assay: Disc agar diffusion assay
Description: (§1) As a further test of an embodiment, the antibacterial properties of EIPE-1 were tested across a large panel of organisms. EIPE-1 was dissolved in DMSO, impregnated onto sterile filter paper disks, and DMSO served as the untreated control according to the following procedure: • 1. Prepare a 2.5 μg/μL stock solution of EIPE-1 by micro pipetting 200 μL of DMSO into 2.0 mL Eppendorf Tube containing 0.5 mg of EIPE-1. Dissolve with vortex agitation and store at 4° C. • 2. Use forceps to pick up sterile 6.0 mm blank paper disks. Make sure to touch only one side of disc as lightly as possible. […] Lean the impregnated disc up against the side of a small sterile glass petri dish. Follow same procedure for DMSO control. Allow disks several hours to dry under flowing sterile air. • 3. Inoculate starter cultures using cells from working culture cultivated on Mueller-Hinton Agar (MHA; Difco Laboratories). Starters consist of ˜20 mL of Mueller-Hinton Broth (MHB; Difco Laboratories) in 125-mL culture flasks. Incubate starter cultures in an Excella E24 Benchtop Incubator Shaker (New Brunswick Scientific Co., Inc., Edison, N.J., USA) at 37° C. and 180 rpm for 15-18 hours. • 4. Pour at least 5.0 mL of NMB into 18-mL Kimax tubes. Use a Pasteur pipette to deliver enough of the starter culture cell suspension to reach an optical density (OD620) of 0.025 (Spectronic™ 20 optical spectrophotometer; Thermo Electron Corp., Madison, Wis., USA). Ensure that both transmittance and absorbance are set to 0.0 using a blank NMB sample. Incubate in rotary shaking incubator at 37° C. and 180 rpm until optical density reaches 0.1. • 5. Deliver 100 μL of test culture to the middle of a small 100 mm×15 mm Petri dish containing ˜⅛ in thickness of MHA. • 6. Saturate a sterile cotton swab with MHB by dipping the cotton swab into KIMAX® tube with MHB and then touch the swab to the north, south, east, and west side of the KIMAX® tube to remove excess broth. • 7. Streak the inoculum as follows: • a. Start in the center and make four straight lines to the 12, 3, 6, and 9 o'clock position on the petri dish. • b. Start at the 12 o'clock position and streak side to side all the way down the plate to the 6 o'clock position. […] Rotate the petri dish 90° and complete the same side to side streak all the way down the petri dish. • d. Complete step c. twice more. • e. Rotate petri dish 45° and complete the side-to-side streak. • f. Rotate petri dish 90° and complete the side-to-side streak. • 8. Use sterile forceps to transfer the DMSO control paper disc onto the agar surface and pat the paper disc down to ensure flush contact. Use the same technique to deliver EIPE-1 paper disc. • 9. Place petri dish at 4° C. for 1.0 hour to allow EIPE-1 diffusion in the absence of growth. • 10. Incubate petri dish at 37° C. for 18 hours. • 11. Observe for zones of growth inhibition surrounding disks. Measure diameter with electronic caliper and subtract 6.0-mm disc diameter. Results • a) Each organism was initially tested once to serve as a screen.

[3] = tested on: Staphylococcus aureus ATCC 25923; assay: Disc agar diffusion assay
Description: as §1

[4] = tested on: Candida isolates from the airways of CF patients; assay: MIC against Candida clinical isolates; conditions: range over multiple Candida isolates from CF patients (FIG. 8)
Description: EIPE-1 was evaluated against multiple Candida isolates from the airways of CF patients.

[5] = Group 3: Gram-positive organisms

## COC(=O)c1cc2c(C#Cc3ccc(OCCC[N+](C)(C)C)cc3)c(OC)c(OC)c(C#Cc3ccc(OCCC[N+](C)(C)C)cc3)c2n1C [EIPE-1, 3,3′-((((5,6-dimethoxy-2-(methoxycarbonyl)-1-methyl-1H-indole-4,7-diyl)bis(ethyne-2,1-diyl))bis(4,1-phenylene))bis(oxy))bis(N,N,N-trimethylpropan-1-aminium) iodide]
HeLa cells
  concentration at which cell cytotoxicity was detected: 62.5 μg/mL and 66.8 μM
HeLa cells; 24-hour exposure, concentrations above 62.5 μg/mL (66.8 μM)
  maximal cytotoxicity (LDH release): 50%
HeLa cells; prolonged exposure (24 h)
  cytotoxic concentration relative to the MIC against S. aureus: 4-5 fold
[1]
  activity against E. coli: did not display any activity
[2]; B. subtilis ATCC 6633, 25 μg per disk, zone minus disk diameter (6.0mm)
  Inhibition Zone Diameter (mm) ± SD: 1.1 ± 0.2 mm
[2]; B. subtilis ATCC 6633, 50 μg per disk, zone minus disk diameter (6.0mm)
  Inhibition Zone Diameter (mm) ± SD: 3.3 ± 0.1 mm
[2]; Bacillus subtilis, ATCC6633, B. subtilis ATCC 6633, 25 μg per disk, zone minus disk diameter (6.0mm), read-out: Inhibition Zone Diameter (mm) ± SD
  zone of inhibition at 25 µg/disc: 1.1 mm
[2]; Bacillus subtilis, ATCC6633, B. subtilis ATCC 6633, 50 μg per disk, zone minus disk diameter (6.0mm), read-out: Inhibition Zone Diameter (mm) ± SD
  zone of inhibition at 50 µg/disc: 3.3 mm
[2]; Bacillus subtilis, ATCC6633, B. subtilis ATCC 6633, 250 μg per disk, zone minus disk diameter (6.0mm), read-out: Inhibition Zone Diameter (mm) ± SD
  zone of inhibition at 250 µg/disc: 1.8 ± 0.3 mm
[2]; [5]
  susceptibility group in disc diffusion screen: susceptible
[3]; [5]
  susceptibility group in disc diffusion screen: susceptible
[3]; S. aureus ATCC 25923, 25 μg per disk, zone minus disk diameter (6.0mm)
  Inhibition Zone Diameter (mm) ± SD: 1.6 ± 0.1 mm
[3]; S. aureus ATCC 25923, 50 μg per disk, zone minus disk diameter (6.0mm)
  Inhibition Zone Diameter (mm) ± SD: 3.1 ± 0.2 mm
[3]; Staphylococcus aureus, ATCC25923, S. aureus ATCC 25923, 25 μg per disk, zone minus disk diameter (6.0mm), read-out: Inhibition Zone Diameter (mm) ± SD
  zone of inhibition at 25 µg/disc: 1.6 mm
[3]; Staphylococcus aureus, ATCC25923, S. aureus ATCC 25923, 50 μg per disk, zone minus disk diameter (6.0mm), read-out: Inhibition Zone Diameter (mm) ± SD
  zone of inhibition at 50 µg/disc: 3.1 mm
[3]; Staphylococcus aureus, ATCC25923, S. aureus ATCC 25923, 250 μg per disk, zone minus disk diameter (6.0mm), read-out: Inhibition Zone Diameter (mm) ± SD
  zone of inhibition at 250 µg/disc: 2.3 ± 0.2 mm
[4]
  MIC: 4 to 11 µg/mL
